The values below come from US9340568B2, “Solid forms of an antiviral compound” (Gilead Pharmasset LLC, priority 2013, dated 2016).

This series in a line: Dynamic vapor sorption (DVS) moisture sorption isotherm. In kind it is physicochemical. The settings on record: relative humidity (RH) of 90%, sorption cycle 1. As for the experimental part: DVS isotherms were generated on a Surface Measurement Systems Dynamic Vapor Sorption Advantage moisture sorption analyzer. Water adsorption and desorption were studied as a function of relative humidity over the range of 0 to 90% RH using 10% RH steps with a fixed equilibration time of 60 minutes per step.

Structures are written as SMILES.

As for `CC(C)OC(=O)[C@H](C)N[P@](=O)(OC[C@H]1O[C@@H](n2ccc(=O)[nH]c2=O)[C@](C)(F)[C@@H]1O)Oc1ccccc1` [Compound I, Form 7, (S)-isopropyl 2-((S)-(((2R,3R,4R,5R)-5-(2,4-dioxo-3,4-dihydropyrimidin-1(2H)-yl)-4-fluoro-3-hydroxy-4-methyltetrahydrofuran-2-yl)methoxy)(phenoxy)phosphorylamino) propanoate], the “change in mass as measured by dynamic vapor sorption (DVS)” value is reported as “about 0.15%”.

As for `CC(C)OC(=O)[C@H](C)N[P@](=O)(OC[C@H]1O[C@@H](n2ccc(=O)[nH]c2=O)[C@](C)(F)[C@@H]1O)Oc1ccccc1` [Compound I, Form 8, (S)-isopropyl 2-(((S)-(((2R,3R,4R,5R)-5-(2,4-dioxo-3,4-dihydropyrimidin-1(2H)-yl)-4-fluoro-3-hydroxy-4-methyltetrahydrofuran-2-yl)methoxy)(phenoxy)phosphoryl)amino) propanoate], the “change in mass as measured by dynamic vapor sorption (DVS)” value is recorded as “about 0.17%”.
